Source: ChEMBL document CHEMBL3217460, “Interactions of polysulfanes with components of red blood cells” (Medchemcomm, 2011)
Activity calls are given as the source filed them. No cut-off for these calls is given here.

Assays:
Erythrocyte [1] = assay: Hemolytic activity in human RBC assessed as phosphatidylserine exposure on outer leaflet of cell membrane at 50 uM after 20 mins by annexin V-FITC staining-based FACS analysis; type: functional
[2] = target: T1, Hemoglobin HbA (Homo sapiens) (UniProt P69905+P68871); assay: Binding affinity to human hemoglobin at 100 to 300 uM by UV-Vis spectrophotometric analysis
[3] = target: T1, Hemoglobin HbA (Homo sapiens); assay: Binding affinity to human hemoglobin by CD spectroscopic analysis
Erythrocyte [4] = assay: Hemolytic activity in human RBC assessed as oxidation of hemoglobin to methemoglobin after 30 mins by UV-Vis spectrophotometric analysis; type: functional, cell-based

T1 sequence (P68871 2-147 partner limits assumed): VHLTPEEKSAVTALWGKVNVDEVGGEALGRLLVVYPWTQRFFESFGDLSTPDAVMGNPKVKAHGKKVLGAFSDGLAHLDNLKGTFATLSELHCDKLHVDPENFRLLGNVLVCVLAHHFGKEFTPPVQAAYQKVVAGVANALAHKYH
T1 sequence (P69905 2-142 limits assumed): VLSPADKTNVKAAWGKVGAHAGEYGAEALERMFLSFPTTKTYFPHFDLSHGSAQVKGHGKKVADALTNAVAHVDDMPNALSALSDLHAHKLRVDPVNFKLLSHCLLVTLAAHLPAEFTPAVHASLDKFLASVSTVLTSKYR

Structure (SMILES)	Activity [2]	Activity [3]	Activity (Erythrocyte [1])	logP at 1000 µM (physchem)	Activity (Erythrocyte [4])
C=CCSSCC=C	Active	Active	Active	2.72	
C=CCCCCCCC=C				4.71	
C=CCS			Active		

Continued, in another order:

Activity [2]	Activity [3]	Structure (SMILES)	Activity (Erythrocyte [1])	logP at 1000 µM (physchem)	Activity (Erythrocyte [4])
Active	Active	C=CCSSSCC=C	Active		Dose-dependent effect
Active	Active	C=CCSCC=C	Active		
Active	Active	C=CCSSSSCC=C	Active		Dose-dependent effect
